Read-outs that look alike come from different tables or passages of the source.
What was measured:
[1] = test system: P. falciparum chloroquine-sensitive (CQS) D6 strain; experiment: Malaria SYBR Green I-based Fluorescence; assay type: cell-based, Plasmodium falciparum
[2] = test system: P. falciparum chloroquine-resistant (CQR) Dd2 strain; experiment: microbe, parasite or virus in culture; assay type: cell-based; settings: Plasmodium falciparum, DD2, read-out: antimalarial activity (IC50 in nM) Dd2
[3] = test system: P. falciparum chloroquine-resistant (CQR) 7G8 strain; experiment: microbe, parasite or virus in culture; assay type: cell-based; settings: Plasmodium falciparum, 7G8, read-out: antimalarial activity (IC50 in nM) 7G8
[4] = test system: P. yoelii (Kenya strain, MR4 MRA-428); experiment: In vivo efficacy against murine malaria, modified 4-day test, oral gavage; settings: mice
[5] = test system: multidrug-resistant P. yoelii; settings: 100 mg/kg/day, oral route; cited from earlier work
[6] = HepG2 cytotoxicity assay; assay type: cell-based; settings: human, cytotoxicity (IC50 in nM) HepG2, HepG2 cells
[7] = Plasmodium falciparum, D6, read-out: antimalarial activity (IC50 in nM) D6

| Structure (SMILES) | IC50 [1, 7] | IC50 [2] | IC50 [3] | also measured |
| --- | --- | --- | --- | --- |
| CCN(CC)CCCC(C)Nc1ccnc2cc(Cl)ccc12 (stereo not shown) [CQ, chloroquine] | 13 nM | 115 nM | 130 nM | % suppression of parasitaemia on day 5 ([4]; 1 mg/kg × 4 days): 65%; % suppression of parasitaemia on day 5 ([4]; 4 mg/kg × 4 days): 94%; % suppression of parasitaemia on day 5 ([4]; 16 mg/kg × 4 days): 100%; % suppression of parasitaemia on day 5 ([4]; 64 mg/kg × 4 days): 100% |
| CCCCCCCCCCCC1=N/C(=C\c2[nH]c(-c3ccc[nH]3)cc2OC)C=C1 [Compound 1a, undecylprodiginine, reference compound] | 7.2 nM | 7.5 nM | 7 nM | – |
| CCC1CCCCCCCCC2=N/C(=C\c3[nH]c(-c4ccc[nH]4)cc3OC)C1=C2 (stereo not shown) [Compound 3b, metacycloprodiginine] | – | – | – | mice cured [5]: three of four |
| OC(c1cc(C(F)(F)F)nc2c(C(F)(F)F)cccc12)C1CCCCN1 (stereo not shown) [MQ, mefloquine] | – | – | – | IC50 [6]: 21800 nM |
| O=C(C=Cc1ccc[nH]1)NCC(=O)NC12CC3CC(CC(C3)C1)C2 [Compound 194] | – | – | – | IC50 ([1]; read-out: antimalarial activity (IC50 in nM) D6): > 2500 nM |
| c1c[nH]c(CNCCNC23CC4CC(CC(C4)C2)C3)c1 [Compound 191, N^1-((Pyrrol-2-yl)methyl)-N^2-(adamantan-1-yl)ethane-1,2-diamine] | > 2500 nM | > 2500 nM | > 2500 nM | – |
| c1c[nH]c(CCCNCCNC23CC4CC(CC(C4)C2)C3)c1 [Compound 196, N^1-(3-(Pyrrol-2-yl)propyl)-N^2-(adamantan-1-yl)ethane-1,2-diamine] | > 2500 nM | > 2500 nM | > 2500 nM | – |
| COC1=CC(c2cccn2C)=NC1=Cc1c(Cc2ccc(Cl)cc2)cc(Cc2ccc(Cl)cc2)n1C [Compound 87, 5’-((3,5-Bis(4-chlorobenzyl)-1-methyl-pyrrol-2-yl)methylene)-4’-methoxy-1-methyl-2,2’-bipyrrole] | > 2500 nM | > 2500 nM | > 2500 nM | – |
| O=C(CNC(=O)c1ccc[nH]1)NC12CC3CC(CC(C3)C1)C2 [Compound 190, N-(2-((Adamantan-1-yl)amino)-2-oxoethyl)-pyrrole-2-carboxamide] | > 2500 nM | > 2500 nM | > 2500 nM | – |
